Experimental data published in EP4722212A1, “NOVEL COMPOUND FOR INHIBITING PROTEIN KINASES AND PHARMACEUTICAL COMPOSITION COMPRISING SAME” (Magicbullettherapeutics Co., Ltd., priority 2023, dated 2024).
Like-named read-outs stand apart in the source and are kept apart here.

Key:
Experiment in all cases: Kinase panel
Type in all cases: biochemical
[1] = biological target: AKT1 (Homo sapiens, UniProt P31749); conditions: AKT1, 1 µM; read-out: residual enzyme activity
Protocol: (§1) To measure the inhibitory activity of protein kinases against the compounds of the present invention, a biochemical assay was performed using a full kinase panel. The inhibitory efficacy of kinases was measured when Example compounds 8 and 51 were treated at a single concentration of 1 µM, and residual enzyme activity values were calculated. Kinases were identified when the calculated residual enzyme activity values were 40% or less, i.e., inhibited by 60% or more.

[2] = biological target: ALK6/BMPR1B (Homo sapiens, UniProt O00238); conditions: read-out: residual enzyme activity
Sequence of ALK6/BMPR1B (O00238 14-502): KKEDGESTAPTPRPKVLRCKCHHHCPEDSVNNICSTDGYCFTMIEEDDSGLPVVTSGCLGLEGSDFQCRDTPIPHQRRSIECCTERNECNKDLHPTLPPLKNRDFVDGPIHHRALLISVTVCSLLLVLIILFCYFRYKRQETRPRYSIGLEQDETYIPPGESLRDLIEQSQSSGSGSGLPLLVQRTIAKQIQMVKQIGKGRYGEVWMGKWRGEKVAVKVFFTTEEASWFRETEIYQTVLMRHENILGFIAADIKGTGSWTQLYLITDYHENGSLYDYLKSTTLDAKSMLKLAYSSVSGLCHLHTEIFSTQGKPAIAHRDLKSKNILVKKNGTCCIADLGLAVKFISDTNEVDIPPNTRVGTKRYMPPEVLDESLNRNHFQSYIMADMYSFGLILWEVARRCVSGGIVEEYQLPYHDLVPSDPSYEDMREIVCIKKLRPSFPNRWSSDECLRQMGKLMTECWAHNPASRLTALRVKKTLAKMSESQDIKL
Protocol: as §1

[3] = biological target: CAMK1D (Homo sapiens, UniProt Q8IU85); conditions: read-out: residual enzyme activity
Protocol: as §1

[4] = biological target: CAMK2G (Homo sapiens, UniProt Q13555); conditions: read-out: residual enzyme activity
Protocol: as §1

[5] = biological target: CDK3/CYCLIN E2 (Homo sapiens, UniProt Q00526); conditions: CDK3/cyclin E2, 1 µM; read-out: residual enzyme activity
Protocol: as §1

[6] = biological target: CDK6/CYCLIN D1 (Homo sapiens, UniProt Q00534); conditions: CDK6/cyclin D1, 1 µM; read-out: residual enzyme activity
Protocol: as §1

[7] = biological target: CLK1 (Homo sapiens, UniProt P49759); conditions: CLK1, 1 µM; read-out: residual enzyme activity
Sequence of CLK1 (P49759 whole entry): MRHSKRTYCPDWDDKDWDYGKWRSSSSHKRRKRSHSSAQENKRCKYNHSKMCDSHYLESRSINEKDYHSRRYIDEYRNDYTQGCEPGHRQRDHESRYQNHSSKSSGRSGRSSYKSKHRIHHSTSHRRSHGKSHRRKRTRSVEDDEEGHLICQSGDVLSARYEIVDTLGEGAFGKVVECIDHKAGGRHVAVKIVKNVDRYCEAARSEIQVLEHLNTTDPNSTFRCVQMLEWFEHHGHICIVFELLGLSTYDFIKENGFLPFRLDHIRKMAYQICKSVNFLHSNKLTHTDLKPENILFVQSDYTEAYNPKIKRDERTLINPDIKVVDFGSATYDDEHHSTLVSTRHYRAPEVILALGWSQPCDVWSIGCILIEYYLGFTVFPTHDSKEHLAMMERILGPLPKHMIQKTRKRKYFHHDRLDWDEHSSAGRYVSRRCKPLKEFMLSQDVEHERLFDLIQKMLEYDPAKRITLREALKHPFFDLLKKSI
Protocol: as §1

[8] = biological target: CLK3 (Homo sapiens, UniProt P49761); conditions: CLK3, 1 µM; read-out: residual enzyme activity
Sequence of CLK3 (P49761 whole entry, species assumed): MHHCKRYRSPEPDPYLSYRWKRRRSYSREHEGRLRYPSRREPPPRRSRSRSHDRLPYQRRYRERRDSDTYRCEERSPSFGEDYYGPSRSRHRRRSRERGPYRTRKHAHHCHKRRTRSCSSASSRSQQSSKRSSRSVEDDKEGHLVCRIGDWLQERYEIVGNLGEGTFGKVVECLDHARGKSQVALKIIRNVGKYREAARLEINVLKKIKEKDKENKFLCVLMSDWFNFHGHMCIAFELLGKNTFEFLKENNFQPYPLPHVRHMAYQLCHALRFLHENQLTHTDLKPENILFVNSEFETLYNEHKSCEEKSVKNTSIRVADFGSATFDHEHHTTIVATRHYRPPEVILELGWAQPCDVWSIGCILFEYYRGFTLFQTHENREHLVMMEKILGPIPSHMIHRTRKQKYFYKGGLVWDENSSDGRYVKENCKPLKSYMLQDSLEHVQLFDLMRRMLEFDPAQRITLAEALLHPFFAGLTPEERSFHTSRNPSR
Protocol: as §1

[9] = biological target: CLK4 (Homo sapiens, UniProt Q9HAZ1); conditions: CLK4, 1 µM; read-out: residual enzyme activity
Protocol: as §1

[10] = biological target: DYRK4 (Homo sapiens, UniProt Q9NR20); conditions: DYRK4, 1 µM; read-out: residual enzyme activity
Protocol: as §1

[11] = biological target: EPHB3 (Homo sapiens, UniProt P54753); conditions: EPHB3, 1 µM; read-out: residual enzyme activity
Protocol: as §1

[12] = biological target: ERK1 (Homo sapiens, UniProt P27361); conditions: ERK1, 1 µM; read-out: residual enzyme activity
Protocol: as §1

[13] = biological target: ERN2/IRE2 (Homo sapiens, UniProt Q76MJ5); conditions: ERN2/IRE2, 1 µM; read-out: residual enzyme activity
Protocol: as §1

[14] = biological target: FLT4/VEGFR3 (Homo sapiens, UniProt P35916); conditions: FLT4/VEGFR3, 1 µM; read-out: residual enzyme activity
Protocol: as §1

[15] = biological target: HCK (Homo sapiens, UniProt P08631); conditions: read-out: residual enzyme activity
Protocol: as §1

[16] = biological target: HIPK4 (Homo sapiens, UniProt Q8NE63); conditions: HIPK4, 1 µM; read-out: residual enzyme activity
Protocol: as §1

[17] = biological target: IKKB/IKBKB (Homo sapiens, UniProt O14920); conditions: read-out: residual enzyme activity
Protocol: as §1

[18] = biological target: MEK2 (Homo sapiens, UniProt P36507); conditions: MEK2, 1 µM; read-out: residual enzyme activity
Protocol: as §1

[19] = biological target: OSR1/OXSR1 (Homo sapiens, UniProt O95747); conditions: OSR1/OXSR1, 1 µM; read-out: residual enzyme activity
Protocol: as §1

[20] = biological target: P70S6KB/RPS6KB2 (Homo sapiens, UniProt Q9UBS0); conditions: read-out: residual enzyme activity
Sequence of P70S6KB/RPS6KB2 (Q9UBS0 whole entry): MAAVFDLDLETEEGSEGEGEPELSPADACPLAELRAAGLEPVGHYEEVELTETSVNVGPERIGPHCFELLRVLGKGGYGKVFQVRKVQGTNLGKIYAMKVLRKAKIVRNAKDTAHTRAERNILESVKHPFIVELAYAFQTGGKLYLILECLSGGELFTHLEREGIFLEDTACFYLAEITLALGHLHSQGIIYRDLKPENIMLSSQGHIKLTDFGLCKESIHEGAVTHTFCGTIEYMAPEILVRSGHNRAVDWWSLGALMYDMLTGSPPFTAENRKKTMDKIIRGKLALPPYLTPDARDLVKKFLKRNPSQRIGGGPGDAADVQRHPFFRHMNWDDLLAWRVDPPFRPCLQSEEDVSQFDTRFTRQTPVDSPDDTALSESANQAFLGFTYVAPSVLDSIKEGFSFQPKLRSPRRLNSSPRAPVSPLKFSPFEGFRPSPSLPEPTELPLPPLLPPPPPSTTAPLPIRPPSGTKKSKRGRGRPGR
Protocol: as §1

[21] = biological target: PAK5 (Homo sapiens, UniProt Q9P286); conditions: PAK5, 1 µM; read-out: residual enzyme activity
Protocol: as §1

[22] = biological target: PIM3 (Homo sapiens, UniProt Q86V86); conditions: PIM3, 1 µM; read-out: residual enzyme activity
Protocol: as §1

[23] = biological target: PKCG (Homo sapiens, UniProt P05129); conditions: read-out: residual enzyme activity
Protocol: as §1

[24] = biological target: PKCMU/PRKD1 (Homo sapiens, UniProt Q15139); conditions: PKCmu/PRKD1, 1 µM; read-out: residual enzyme activity
Protocol: as §1

[25] = biological target: PKG2/PRKG2 (Homo sapiens, UniProt Q13237); conditions: PKG2/PRKG2, 1 µM; read-out: residual enzyme activity
Protocol: as §1

[26] = biological target: PLK4/SAK (Homo sapiens, UniProt O00444); conditions: read-out: residual enzyme activity
Sequence of PLK4/SAK (O00444 whole entry): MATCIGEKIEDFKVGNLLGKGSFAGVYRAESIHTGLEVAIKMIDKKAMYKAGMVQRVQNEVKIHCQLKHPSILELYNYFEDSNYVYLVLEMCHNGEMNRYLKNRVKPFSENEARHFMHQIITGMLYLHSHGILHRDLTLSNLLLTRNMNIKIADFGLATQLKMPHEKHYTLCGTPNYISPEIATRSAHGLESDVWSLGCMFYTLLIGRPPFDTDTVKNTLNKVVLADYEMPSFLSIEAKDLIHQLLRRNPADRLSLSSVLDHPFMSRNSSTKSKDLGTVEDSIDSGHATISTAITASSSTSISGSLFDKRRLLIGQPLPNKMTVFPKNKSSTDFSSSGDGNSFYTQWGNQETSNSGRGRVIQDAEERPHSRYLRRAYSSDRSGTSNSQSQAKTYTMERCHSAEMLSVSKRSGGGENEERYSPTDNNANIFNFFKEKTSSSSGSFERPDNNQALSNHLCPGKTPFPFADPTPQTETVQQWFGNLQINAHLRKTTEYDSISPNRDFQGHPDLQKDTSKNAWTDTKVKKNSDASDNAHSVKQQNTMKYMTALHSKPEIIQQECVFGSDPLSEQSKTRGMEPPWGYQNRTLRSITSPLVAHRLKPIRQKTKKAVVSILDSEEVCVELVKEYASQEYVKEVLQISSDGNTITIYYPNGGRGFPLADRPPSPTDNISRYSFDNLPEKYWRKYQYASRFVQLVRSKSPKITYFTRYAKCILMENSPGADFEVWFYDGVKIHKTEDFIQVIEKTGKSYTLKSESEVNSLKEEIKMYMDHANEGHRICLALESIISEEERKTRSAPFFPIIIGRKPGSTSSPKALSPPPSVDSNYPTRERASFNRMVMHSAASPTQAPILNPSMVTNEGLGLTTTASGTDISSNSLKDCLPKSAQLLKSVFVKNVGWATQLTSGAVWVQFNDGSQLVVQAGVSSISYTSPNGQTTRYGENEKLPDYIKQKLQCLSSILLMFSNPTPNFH
Protocol: as §1

[27] = biological target: SLK/STK2 (Homo sapiens, UniProt Q9H2G2); conditions: SLK/STK2, 1 µM; read-out: residual enzyme activity
Protocol: as §1

[28] = biological target: STK22D/TSSK1 (Homo sapiens, UniProt Q9BXA7); conditions: STK22D/TSSK1, 1 µM; read-out: residual enzyme activity
Sequence of STK22D/TSSK1 (Q9BXA7 whole entry): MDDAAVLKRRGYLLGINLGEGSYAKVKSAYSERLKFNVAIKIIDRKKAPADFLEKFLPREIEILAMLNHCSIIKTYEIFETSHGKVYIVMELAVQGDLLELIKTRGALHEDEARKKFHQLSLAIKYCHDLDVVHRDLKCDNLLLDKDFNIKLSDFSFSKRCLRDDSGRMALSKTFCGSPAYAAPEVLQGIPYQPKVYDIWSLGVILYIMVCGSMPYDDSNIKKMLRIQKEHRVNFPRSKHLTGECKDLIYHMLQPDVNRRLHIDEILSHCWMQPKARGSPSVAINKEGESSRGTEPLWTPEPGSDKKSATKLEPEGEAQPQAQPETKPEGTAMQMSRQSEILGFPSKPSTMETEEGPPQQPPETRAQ
Protocol: as §1

[29] = biological target: TRKC (Homo sapiens, UniProt Q16288); conditions: read-out: residual enzyme activity
Protocol: as §1

[30] = biological target: TYK2 (Homo sapiens, UniProt P29597); conditions: TYK2, 1 µM; read-out: residual enzyme activity
Sequence of TYK2 (P29597 whole entry, species assumed): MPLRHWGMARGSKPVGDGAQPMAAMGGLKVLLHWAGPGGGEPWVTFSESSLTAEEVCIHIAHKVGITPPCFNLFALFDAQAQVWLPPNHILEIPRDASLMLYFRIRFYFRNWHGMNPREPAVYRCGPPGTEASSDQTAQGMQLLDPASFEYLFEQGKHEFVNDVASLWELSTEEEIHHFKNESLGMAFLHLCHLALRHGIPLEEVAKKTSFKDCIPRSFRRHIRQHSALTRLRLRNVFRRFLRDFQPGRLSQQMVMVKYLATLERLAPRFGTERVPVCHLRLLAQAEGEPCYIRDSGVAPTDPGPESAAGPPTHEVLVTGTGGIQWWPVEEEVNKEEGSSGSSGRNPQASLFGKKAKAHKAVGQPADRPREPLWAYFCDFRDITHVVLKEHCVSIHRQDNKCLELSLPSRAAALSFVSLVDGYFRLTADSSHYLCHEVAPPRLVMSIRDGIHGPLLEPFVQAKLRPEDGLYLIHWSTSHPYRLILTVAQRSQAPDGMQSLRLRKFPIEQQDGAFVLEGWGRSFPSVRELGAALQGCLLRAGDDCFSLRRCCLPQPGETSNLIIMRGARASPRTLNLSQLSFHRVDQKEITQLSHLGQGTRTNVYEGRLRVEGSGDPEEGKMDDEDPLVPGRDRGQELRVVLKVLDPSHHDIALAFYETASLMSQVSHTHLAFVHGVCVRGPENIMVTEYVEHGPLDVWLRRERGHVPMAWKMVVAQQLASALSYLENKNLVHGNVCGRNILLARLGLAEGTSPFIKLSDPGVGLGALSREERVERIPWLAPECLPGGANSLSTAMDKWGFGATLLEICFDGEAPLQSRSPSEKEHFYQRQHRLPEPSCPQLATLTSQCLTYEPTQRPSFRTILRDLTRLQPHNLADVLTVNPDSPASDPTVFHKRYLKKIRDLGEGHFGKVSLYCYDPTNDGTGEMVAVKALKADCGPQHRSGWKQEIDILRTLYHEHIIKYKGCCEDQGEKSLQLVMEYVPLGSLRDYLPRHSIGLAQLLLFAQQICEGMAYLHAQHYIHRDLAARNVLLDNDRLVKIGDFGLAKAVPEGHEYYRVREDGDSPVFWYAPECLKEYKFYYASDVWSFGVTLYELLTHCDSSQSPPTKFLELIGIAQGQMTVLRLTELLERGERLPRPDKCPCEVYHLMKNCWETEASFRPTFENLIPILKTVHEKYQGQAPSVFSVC
Protocol: as §1

[31] = biological target: ULK2 (Homo sapiens, UniProt Q8IYT8); conditions: ULK2, 1 µM; read-out: residual enzyme activity
Protocol: as §1

[32] = biological target: ULK3 (Homo sapiens, UniProt Q6PHR2); conditions: ULK3, 1 µM; read-out: residual enzyme activity
Protocol: as §1

Sequence of AKT1 (P31749 whole entry): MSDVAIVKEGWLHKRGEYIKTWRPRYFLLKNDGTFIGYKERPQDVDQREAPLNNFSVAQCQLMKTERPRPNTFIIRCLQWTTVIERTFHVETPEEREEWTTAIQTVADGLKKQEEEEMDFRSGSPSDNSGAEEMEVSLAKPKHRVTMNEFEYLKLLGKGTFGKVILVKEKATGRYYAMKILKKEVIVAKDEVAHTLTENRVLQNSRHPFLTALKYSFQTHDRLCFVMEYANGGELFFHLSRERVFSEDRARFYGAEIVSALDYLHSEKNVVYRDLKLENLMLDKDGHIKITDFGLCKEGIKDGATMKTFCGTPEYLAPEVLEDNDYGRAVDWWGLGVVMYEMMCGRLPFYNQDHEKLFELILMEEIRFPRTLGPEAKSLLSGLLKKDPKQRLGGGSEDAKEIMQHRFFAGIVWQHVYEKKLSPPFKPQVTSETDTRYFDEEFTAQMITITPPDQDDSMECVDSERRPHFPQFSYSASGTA

Structure (SMILES)	remaining activity at 1 µM [1]	remaining activity at 1 µM [2]	remaining activity at 1 µM [5]	remaining activity at 1 µM [6]	remaining activity at 1 µM [7]	remaining activity at 1 µM [8]	remaining activity at 1 µM [9]	remaining activity at 1 µM [10]	remaining activity at 1 µM [11]	remaining activity at 1 µM [12]	remaining activity at 1 µM [13]	remaining activity at 1 µM [14]	remaining activity at 1 µM [15]	remaining activity at 1 µM [16]	remaining activity at 1 µM [17]	remaining activity at 1 µM [18]	remaining activity at 1 µM [19]	remaining activity at 1 µM [21]	remaining activity at 1 µM [22]	remaining activity at 1 µM [23]	other results
Cc1ccc(Nc2ncc3c(n2)C2(CC2)C(=O)N(c2cc(NC(=O)c4cccc(C(F)(F)F)c4)ccc2C)C3)cn1 [Compound 51, N-(4-methyl-3-(2'-((6-methylpyridin-3-yl)amino)-7'-oxo-5'H-spiro[cyclopropane-1,8'-pyrido[4,3-d]pyrimidine]-6'(7'H)-yl)phenyl)-3-(trifluoromethyl)benzamide]	> 40%	> 40%	> 40%	> 40%	> 40%	> 40%	> 40%	> 40%	≤ 40%	> 40%	> 40%	≤ 40%	≤ 40%	≤ 40%	> 40%	> 40%	> 40%	> 40%	> 40%	> 40%	remaining activity at 1 µM ([3]; CAMK1d): > 40%; remaining activity at 1 µM ([4]; CAMK2g): > 40%; remaining activity at 1 µM ([20]; p70S6Kb/RPS6KB2, 1 µM): > 40%; remaining activity at 1 µM [24]: > 40%; remaining activity at 1 µM [25]: > 40%; remaining activity at 1 µM [26]: > 40%; remaining activity at 1 µM [27]: ≤ 40%; remaining activity at 1 µM [28]: > 40%; remaining activity at 1 µM [29]: ≤ 40%; remaining activity at 1 µM [30]: ≤ 40%; remaining activity at 1 µM [31]: > 40%; remaining activity at 1 µM [32]: > 40%
Cc1cn(-c2cc(C(=O)Nc3ccc(C)c(N4Cc5cnc(NC6CC6)nc5C5(CC5)C4=O)c3)cc(C(F)(F)F)c2)cn1 [Compound 8, N-(3-(2'-(cyclopropylamino)-7'-oxo-5'H-spiro[cyclopropane-1,8'-pyrido[4,3-d]pyrimidine]-6'(7'H)-yl)-4-methylphenyl)-3-(4-methyl-1H-imidazol-1-yl)-5-(trifluoromethyl)benzamide]	> 40%	> 40%	> 40%	> 40%	> 40%	> 40%	> 40%	> 40%	≤ 40%	> 40%	> 40%	≤ 40%	≤ 40%	> 40%	> 40%	> 40%	> 40%	> 40%	> 40%	> 40%	remaining activity at 1 µM ([3]; CAMK1D): > 40%; remaining activity at 1 µM ([4]; CAMK2G): > 40%; remaining activity at 1 µM ([20]; P70S6KB/RPS6KB2, 1 µM): > 40%; remaining activity at 1 µM [24]: > 40%; remaining activity at 1 µM [25]: > 40%; remaining activity at 1 µM [26]: > 40%; remaining activity at 1 µM [27]: ≤ 40%; remaining activity at 1 µM [28]: > 40%; remaining activity at 1 µM [29]: ≤ 40%; remaining activity at 1 µM [30]: ≤ 40%; remaining activity at 1 µM [31]: > 40%; remaining activity at 1 µM [32]: > 40%
